According to patent US8680094B2, “1, 4-benzoxazine compounds and derivatives thereof as therapeutic drugs for the treatment of neurodegenerative conditions” (Board of Regents, The University of Texas System, priority 2008, dated 2014):
Several values for one entry are separate records, joined by “and”; a condition that tells them apart may be missing. Equal entries are not always repeated. Entries after “also recorded” stand apart in the source; their conditions may differ.

How the values were obtained:
[1] = tested on: cerebellar granule neurons; assay: Effect of inhibition of signal transduction pathways on neuroprotection by 1,4-benzoxazines in LK-treated cerebellar granule neurons; type: cell-based, rat; settings: LK medium, 24 h; for effect of pharmacological inhibition of the MEK-ERK and PI-3K-Akt pathways on neuroprotective action: PD98059 40 μM, U0126 10 μM, Wortmannin 100 nm, Akt inhibitor-X 5 μM, DAPI
Experimental: Cultures of cerebellar granule neurons were switched to LK medium, LK medium containing of HSB-13, or LK medium containing HSB-13 and either PD98059 (40 μM), U0126 (10 μM), Wortmannin ([…]), Akt inhibitor-X (5 μM), KN-62 (10 μM), H89 (10 μM) and TSA (1 μM). Viability was quantified 24 h later by DAPI staining. The results were normalized to viability in control cultures which were switched to HK medium;
The Raf-MEK-ERK and P1-3 kinase-Akt signaling are two well-established and powerful anti-apoptotic pathways in mammalian cells that mediate the protective effects of a number of neurotrophic polypeptides, pharmacological agents, and neuroprotective compounds (D'Mello and Chin, 2005; Hetman et al., 2006). To determine whether either of these pathways was involved in the neuroprotective effect of 1,4-benzoxazines the inventors studied whether the pharmacological inhibition of these pathways affected their neuroprotective efficacy. […] Similarly, none of the compounds tested (the PI-3 kinase inhibitor, wortmannin, the Akt inhibitor X, or a commercially available inhibitor of Akt) reduced the ability of HSB-13 to protect neurons against LK-induced apoptosis (FIG. 3). […] As observed for HSB-13, pharmacological inhibition of the MEK-ERK and PI-3K-Akt pathways had no effect on the neuroprotective actions of ASK-2a or HSB-22.
Treatment of cerebellar granule neurons with HK activates calcium-calmodulin kinase (CaMK) and inhibition of CaMK with pharmacological inhibitors such as KN-62 inhibits HK-mediated survival (See et al., 2001; Linseman et al., 2003; Morrison et al., 2006). […] The present inventors recognized that several investigators have shown that cyclic AMP analogs and pharmacological activators of protein kinase A promote survival of cerebellar granule neurons as well as other neuronal types in the absence of other survival-promoting stimuli (Rydel and Greene, 1988; D'Mello et al., 1993; Hanson et al., 1998). PKA-mediated neuronal survival is blocked by treatment with H89, a potent and selective PICA inhibitor (Li et al., 2000; Bhave and Hoffman, 2004). […] The inventors have previously reported that histone deacetylase inhibitors such as trichostatin A block the ability of HK to maintain the survival of cerebellar granule neurons (Salminen et al., 1998; Boutillier et al., 2002; Morrison et al., 2006).

[2] = tested on: cerebellar granule neurons; assay: LK-induced death of cultured cerebellar granule neurons, viability by DAPI staining; type: cell-based, rat; settings: for protection against LK-induced neuronal death (FIG. 1): 25 μM, phase contrast microscopy, DAPI-staining, TUNEL-staining; for neuroprotection against LK-induced neuronal death, in words: overall over 1, 5 and 25 μM
Experimental: Culturing and treatments of cerebellar granule neurons: Granule neuron cultures were obtained from dissociated cerebella of 6-7 day old Wistar rats as described previously (D'Mello et al., 1993). Cells were plated in Basal Eagle's Medium (BME) supplemented with 10% fetal calf serum (FCS), 25 mM KCl, 2 mM glutamine (Invitrogen), and 100 μg/ml gentamycin in poly-L-lysine coated 24-well dishes at a density 1×10^6 cells/well. Cytosine arabinofuranoside (10 μM) was added to the culture medium 18-22 h after plating to prevent replication of nonneuronal cells. Previous immunocytochemical analyses by our lab and other investigators have shown that these cultures have high purity containing over 95% granule neurons (Thangnipon et al., 2003; Kingsbury et al., 2005).
The neuronal cultures were maintained for 7-8 days prior to treatment. For treatment, the cells were rinsed once and then maintained in low K+ medium (serum-free BME medium; referred to as LK), or in the case of control cultures, in high K+ medium (serum-free BME medium supplemented with 20 mM KCl; referred to as HK). For treatments, the chemical compounds (dissolved in dimethylsulfoxide) were added directly to LK medium at the time of the switch from HK at concentrations of 1, 5, or 25 μM. Viability was assessed 24 hours by 4′,6′-diamidino-2-phenylindole hydrochloride (DAPI) staining (see below). Each compound was tested in duplicate (at each of the concentrations) and the experiment repeated at least 3 times.
The viability status of neuronal cultures treated with HK, LK, or LK medium supplemented with various compounds was evaluated by phase contrast microscopy and quantified by staining cell nuclei with DAPI as previously described (Yalcin et al., 2003; Morrison et al., 2006; Majzadeh et al., 2007)). Briefly, the cells were fixed in 4% paraformaldehyde for 20 min at 4° C. After washing in phosphate buffered saline, diamidino-2-phenylindole hydrochloride (DAPI; 1 μg/ml in phosphate buffered saline) was added for 15 min at room-temperature and viewed under ultraviolet light (260 nm). Cells with condensed or fragmented nuclei were scored as dead. Viability has been expressed as percent of control cultures, which were switched to HK medium). Statistical analysis was performed using an unpaired, two-tailed Student's T test, compared to mean neuronal survival of control cultures receiving LK treatment.
When cultured cerebellar granule neurons are switched from HK to LK medium about 50% of the cells underwent apoptosis within 24 h (D'Mello et al., 1993). The inventors utilized this widely used and recognized model to test a total of 20 different 1,4-benzoxazine derivatives for their ability to protect against LK-induced neuronal death. Each compound was tested at 3 different doses—1 μM, 5 μM and 25 μM and viability quantified by DAPI-staining. The highest does was included to test for possible toxicity effects of the compounds. Key results were confirmed using TUNEL staining, another reliable assay of apoptosis (FIG. 1). As shown in Table 1 and FIG. 1, the present invention identifies several compounds with significant neuroprotective effect. Two of the most protective compounds are HSB-13 and HSB-22, both with Ar=3′,5′-dibromo-4′-hydroxyphenyl (FIG. 1). […] Protection with this compound is lower than that observed with HSB-13 and HSB-22 at the two lower doses. […] To examine whether a higher level of protection could be observed at doses lower than 1 μM, the analyses of these compounds was extended to doses of 0.5, 0.25, and 0.1 μM.
When cultured cerebellar granule neurons are switched to LK medium, about 50% of the cells undergo apoptosis within 24 h. In this study, a total of 20 different 1,4-benzoxazine derivatives of the structure shown in FIG. 1 were tested for their ability to protect against LK-induced death of cerebellar granule neurons. Each compound was tested at 3 different doses —1 μM, 5 μM and 25 μM. […]

[3] = Table 1, 5 μM in LK medium, 24 h, % of survival in control cultures in HK medium, LK alone 48%
[4] = Table 1, 25 μM in LK medium, 24 h, % of survival in control cultures in HK medium, LK alone 48%
[5] = Table 4, 1 μM in LK medium, % of survival in HK control cultures, LK alone 48.16±8.44%
[6] = Table 4, 5 μM in LK medium, % of survival in HK control cultures, LK alone 48.16±8.44%
[7] = Table 4, 25 μM in LK medium, % of survival in HK control cultures, LK alone 48.16±8.44%

SMILES | effect of pharmacological inhibition of the MEK-ERK and PI-3K-Akt pathways on neuroprotective action [1] | protection against LK-induced neuronal death (FIG. 1) ([2]; 24 h) | % Survival ([2]; Table 1, 1 μM in LK medium, 24 h, % of survival in control cultures in HK medium, LK alone 48%) | % Survival [2, 3] | % Survival [2, 4] | neuroprotection against LK-induced neuronal death, in words [2] | neuroprotection in the presence of H89 ([1]; H89 10 μM (PKA inhibitor)) | neuroprotection in the presence of KN-62 ([1]; KN-62 10 μM (CaMK inhibitor)) | neuroprotection in the presence of TSA ([1]; TSA 1 μM (histone deacetylase inhibitor)) | % Survival [2, 5] | % Survival [2, 6] | % Survival [2, 7]
O=C1Nc2ccccc2OC1=Cc1cc(Br)c(O)c(Br)c1 [ASK-2a] | no effect | protective | 74.01 ± 6.93% | 80.84 ± 9.31 % | 95.12 ± 3.28 % | much higher neuroprotection than ASK2; also recorded: high level of neuroprotection; also recorded: effective in all the three concentrations | – | – | – | – | – | –
Nc1ccc2c(c1)NC(=O)/C(=C/c1cc(Br)c(O)c(Br)c1)O2 [HSB-13, (Z)-6-amino-2-(3,′5′-dibromo-4′-hydrozybenzylidene)-2H-benzo[b][1,4]oxazin-3(4H)-one] | no effect | protective | – | 100.2 ± 2.25 % | 95.1 ± 5.06 % | highest neuroprotection; also recorded: effective in all the three concentrations | no effect | not, however, reduced | did not inhibit | 83.1 ± 4.53 % | 100.8% and 100.8 ± 0.07 % | 99.5% and 99.5 ± 1.56 %
O=C1Nc2cc(Cl)ccc2O/C1=C\c1cc(Br)c(O)c(Br)c1 [HSB-22] | no effect | protective | – | 87.54 ± 8.83 % | 91.24 ± 9.03 % | effective in all the three concentrations | – | – | – | 92% and 91.9 ± 1.98 % | 97% and 96.7 ± 2.96 % | 90.6% and 90.6 ± 0.84 %
